The test system of data set [1] is HCV replicon in human hepatoma Huh-7 cell line. The data set is described as follows: Anti-HCV replicon assay, EC50 (luciferase luminescence). It is filed as cell-based. To be noted: Hepatitis C virus, Huh-7, 72 h. A digest of the protocol: (§1)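 Huh-7 cells carrying HCV replicon (6000/well) incubated with serially diluted compound, 0.5% DMSO final, 3 days at 37° C, 5% CO2. EC50 from luciferase luminescence after 30 min lysis/substrate at room temperature; CC50 from CellTiter-Glo luminescence after 10 min at room temperature.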
For orientation: Replicon systems follow genome replication, usually without infectious particles.

A short description of data set [2]: CC50 assay (CellTiter-Glo) in Huh-7 HCV replicon cells. To be noted: human. The class given is cell-based. In a few lines:
as §1

Each structure is given as a SMILES string. pEC50: −log10 of the molar value. Some results are limits rather than exact numbers.

What is called pEC50 is −log10 of the EC50, conventionally taken in molar units. High values mean a small EC50, low ones a large EC50. By CC50 is commonly meant the concentration giving 50% cytotoxicity. Read a high CC50 as lower toxicity to the cells. In data set [1], `C[C@@H](Nc1nc(NCC(F)(F)F)c2nc(C#CC3CC3)ccc2n1)c1ccc(S(N)(=O)=O)cc1` [Example 275, (R)-4-(1-(6-(2-cyclopropyl-ethynyl)-4-(2,2,2-trifluoro-ethylamino)pyrido[3,2-d]pyrimidin-2-ylamino)ethyl) benzenesulfonamide] showed a pEC50 of over 7.00. The compound also gave a CC50 at 3 days in data set [2] (Table 2, 3 days incubation) of over 10000 nM.
In data set [1], `NS(=O)(=O)c1cc(-c2ccc3nc(NCc4ccc(-n5cncn5)cc4)nc(NC4(C(F)(F)F)CC4)c3n2)ccc1Cl` [Example 37, 5-(2-(4-(1H-1,2,4-triazol-1-yl)benzylamino)-4-(1-(trifluoromethyl)cyclopropyl-amino)pyrido[3,2-d]pyrimidin-6-yl)-2-chlorobenzenesulfonamide] had a pEC50 of over 7.00. For the same compound, the CC50 at 3 days in data set [2] (Table 2, 3 days incubation) fell in the range of 1000 to 10000 nM.
In turn, `Fc1cc(-c2ccc3nc(NCc4ccc(-n5cncn5)cc4)nc(NC4(C(F)(F)F)CC4)c3n2)cnc1NC1CC1` [Example 65, N^2-(4-(1H-1,2,4-triazol-1-yl)benzyl)-6-(6-(cyclopropylamino)-5-fluoropyridin-3-yl)-N^4-(1-(trifluoromethyl)cyclopropyl) pyrido[3,2-d]pyrimidine-2,4-diamine] showed a negative logarithm of the EC50 (pEC50) in data set [1] of over 7.00. Besides, the CC50 at 3 days in data set [2] (Table 2, 3 days incubation) was 1000 to 10000 nM.
Turning to `NS(=O)(=O)c1cc(Cl)cc(CNc2nc(NC3(C(F)(F)F)CC3)c3nc(-c4ccc(C(=O)NC5(C(F)(F)F)CC5)cc4)ccc3n2)c1` [Example 95, 3-chloro-5-((6-(4-(1-(trifluoromethyl)cyclopropyl-aminocarbonyl)phenyl)-4-(1-(trifluoromethyl)cyclopropyl-amino)pyrido[3,2-d]pyrimidin-2-ylamino)methyl)benzene-sulfonamide], in data set [1], the pEC50 was over 7.00. This compound also registered a CC50 at 3 days in data set [2] (Table 2, 3 days incubation) of 1000 to 10000 nM.
In the case of `C#Cc1ccc2nc(N[C@H](C)c3ccc(S(N)(=O)=O)cc3)nc(OC3CCC3)c2n1` [Example 307, (R)-4-(1-(4-cyclobutoxy-6-ethynylpyrido[3,2-d]pyrimidin-2-ylamino)ethyl)benzene-sulfonamide], the pEC50 in data set [1] was 5.70 to 6.60. Further, the CC50 at 3 days in data set [2] (Table 2, 3 days incubation) lay in the range of 1000 to 10000 nM.
As for `NS(=O)(=O)c1ccc(CNc2nc(NCC(F)(F)F)c3nc(-c4ccc(F)cc4)ccc3n2)cc1C(F)(F)F` [Example 9, 4-{[6-(4-Fluoro-phenyl)-4-(2,2,2-trifluoro-ethylamino)-pyrido[3,2-d]pyrimidin-2-ylamino]-methyl}-2-trifluoromethyl-benzenesulfonamide], in data set [1], the pEC50 was 5.70 to 6.60. Also, the CC50 at 3 days in data set [2] (Table 1, 3 days incubation) was over 25000 nM.
As to `CC(C)Oc1ccc(-c2ccc3nc(NCc4ccc(-n5cccn5)cc4)nc(NCC(F)(F)F)c3n2)cn1` [Example 242, N^2-(4-(1H-pyrazol-1-yl)benzyl)-6-(6-isopropoxypyridin-3-yl)-N^4-(2,2,2-trifluoroethyl)pyrido [3,2-d]pyrimidine-2,4-diamine], the pEC50 in data set [1] was over 7.00. In data set [2] (Table 2, 3 days incubation), this compound had a CC50 at 3 days of 1000 to 10000 nM.
As for `Cc1ccc(-c2ccc3nc(NCc4ccc(S(N)(=O)=O)cc4)nc(NCC(F)(F)F)c3n2)cc1S(C)(=O)=O` [Example 143, 4-((6-(4-methyl-3-(methylsulfonyl)phenyl)-4-(2,2,2-trifluoroethylamino)pyrido[3,2-d]pyrimidin-2-ylamino)methyl)benzene-sulfonamide], the pEC50 in data set [1] was over 7.00. Further, the CC50 at 3 days in data set [2] (Table 2, 3 days incubation) is over 10000 nM.
With `Cc1cc(S(N)(=O)=O)c(C)cc1CNc1nc(NC2(C(F)(F)F)CC2)c2nc(-c3ccc(F)cc3)ccc2n1` [Example 83, 4-((6-(4-fluorophenyl)-4-(1-(trifluoromethyl)cyclopropylamino)pyrido[3,2-d]pyrimidin-2-ylamino)methyl)-2.5-dimethylbenzenesulfonamide], the pEC50 in data set [1] is 6.60 to 7.00. Further, in data set [2] (Table 2, 3 days incubation), the CC50 at 3 days is over 10000 nM.
`CC(Cn1cncn1)Nc1nc(NC2(C(F)(F)F)CC2)c2nc(-c3ccc(NC4CC4)nc3)ccc2n1` (centres unmarked) [Example 114, N^2-(1-(1H-1,2,4-triazol-1-yl)propan-2-yl)-6-(6-(cyclopropylamino)pyridin-3-yl)-N^4-(1-(trifluoromethyl)cyclopropyl)pyrido[3,2-d] pyrimidine-2,4-diamine] had a negative logarithm of the EC50 (pEC50) in data set [1] of over 7.00. For the same compound, in data set [2] (Table 2, 3 days incubation), the CC50 at 3 days was over 10000 nM.
Compound `FC(F)(F)CNc1nc(NCc2ccc(-n3cncn3)cc2)nc2ccc(-c3ccc(OC4CCC4)nc3)nc12` [Example 250, N^2-(4-(1H-1,2,4-triazol-1-yl)benzyl)-6-(6-cyclobutoxy-pyridin-3-yl)-N^4-(2,2,2-trifluoroethyl)pyrido[3,2-d] pyrimidine-2,4-diamine] gave a pEC50 in data set [1] of over 7.00. In data set [2] (Table 2, 3 days incubation), this compound gave a CC50 at 3 days of 1000 to 10000 nM.
The like results for `NS(=O)(=O)c1cc(Cl)cc(CNc2nc(NC3(C(F)(F)F)CC3)c3nc(-c4ccc(F)cc4)ccc3n2)c1` [Example 27, 3-chloro-5-{[6-(4-fluorophenyl)-4-(1-trifluoromethyl-cyclopropylamino)-pyrido[3,2-d]pyrimidin-2-ylamino]-methyl}-benzenesulfonamide] were, in that order, 6.60 to 7.00 and over 10000 nM.
Compound `NS(=O)(=O)c1cc(CNc2nc(NCC(F)(F)F)c3nc(C#CC4CC4)ccc3n2)cc(C(F)(F)F)c1` [Example 278, 3-((6-(2-cyclopropylethynyl)-4-(2,2,2-trifluoroethylamino)pyrido[3,2-d]pyrimidin-2-ylamino)methyl)-5-(trifluoro-methyl)benzenesulfonamide] showed a negative logarithm of the EC50 (pEC50) in data set [1] of 6.60 to 7.00. This compound also displayed a CC50 at 3 days in data set [2] (Table 2, 3 days incubation) of over 10000 nM.
In the same order, the values of `CS(=O)(=O)c1cc(-c2ccc3nc(NCc4cc(F)cc(S(N)(=O)=O)c4)nc(NC4(C(F)(F)F)CC4)c3n2)ccc1Cl` [Example 36, 3-((6-(4-chloro-3-(methylsulfonyl)phenyl)-4-(1-(trifluoromethyl)cyclopropyl-amino)pyrido[3,2-d]pyrimidin-2-ylamino)methyl)-5-fluorobenzenesulfonamide] are over 7.00 and 1000 to 10000 nM.
`Cc1cc(CNc2nc(NC3(C(F)(F)F)CC3)c3nc(-c4ccc(F)cc4)ccc3n2)cc(S(N)(=O)=O)c1` [Example 82, 3-((6-(4-fluorophenyl)-4-(1-(trifluoromethyl)cyclopropyl-amino)pyrido[3,2-d]pyrimidin-2-ylamino)methyl)-5-methylbenzenesulfonamide] had a pEC50 in data set [1] of over 7.00. In data set [2] (Table 2, 3 days incubation), the CC50 at 3 days is over 10000 nM.
`CC#Cc1ccc2nc(N[C@H](C)c3ccc(S(N)(=O)=O)cc3)nc(O[C@@H]3C[C@@H]4C[C@@H]4C3)c2n1` [Example 313, 4-((R)-1-(4-((1S,3r,5R)-bicyclo[3.1.0]hexan-3-yloxy)-6-(prop-1-ynyl)pyrido[3,2-d]pyrimidin-2-ylamino)ethyl) benzenesulfonamide] showed a pEC50 in data set [1] of over 7.00. For the same compound, in data set [2] (Table 2, 3 days incubation), the CC50 at 3 days is over 10000 nM.
Compound `COc1ccc(-c2ccc3nc(NCc4cccc(S(N)(=O)=O)c4)nc(NCC(F)(F)F)c3n2)cc1S(C)(=O)=O` [Example 144, 3-((6-(4-methoxy-3-(methylsulfonyl)phenyl)-4-(2,2,2-trifluoroethylamino)pyrido[3,2-d]pyrimidin-2-ylamino)methyl)benzene-sulfonamide] had a pEC50 in data set [1] of over 7.00. In data set [2] (Table 2, 3 days incubation), the CC50 at 3 days fell in the range of 1000 to 10000 nM.
In the same order, the values of `COc1nc(N[C@H](C)c2ccc(S(N)(=O)=O)cc2)nc2ccc(C#CC3CC3)nc12` [Example 315, (R)-4-(1-(6-(2-cyclopropyl-ethynyl)-4-methoxypyrido [3,2-d]pyrimidin-2-ylamino)ethyl)benzenesulfonamide] are 5.70 to 6.60 and over 10000 nM.
In data set [1], `CS(=O)(=O)Nc1cc(F)cc(CNc2nc(NC3(C(F)(F)F)CC3)c3nc(-c4ccc(F)cc4)ccc3n2)c1` [Example 107, N-(3-fluoro-5-((6-(4-fluorophenyl)-4-(1-(trifluoromethyl)cyclopropyl-amino)pyrido[3,2-d]pyrimidin-2-ylamino)methyl)phenyl)methane-sulfonamide] had a pEC50 of 5.70 to 6.60. The CC50 at 3 days in data set [2] (Table 2, 3 days incubation) was over 10000 nM.
Compound `COc1ccc(-c2ccc3nc(NCc4cccc(S(C)(=O)=O)c4)nc(NC4(C(F)(F)F)CC4)c3n2)cc1S(C)(=O)=O` [Example 35, N^2-(3-(methylsulfonyl)benzyl)-6-(4-methoxy-3-(methylsulfonyl)phenyl)-N^4-(1-(trifluoromethyl)cyclopropyl) pyrido[3,2-d]pyrimidine-2,4-diamine] gave a pEC50 in data set [1] of over 7.00. The compound further showed a CC50 at 3 days in data set [2] (Table 2, 3 days incubation) of 1000 to 10000 nM.
`CS(=O)(=O)c1cccc(CNc2nc(NCC(F)(F)F)c3nc(-c4ccc(OC(F)F)c(S(C)(=O)=O)c4)ccc3n2)c1` [Example 174, N^2-(3-(methylsulfonyl)benzyl)-6-(4-(difluoromethoxy)-3-(methylsulfonyl)phenyl)-N^4-(2,2,2-trifluoroethyl)pyrido [3,2-d]pyrimidine-2,4-diamine] gave a pEC50 in data set [1] of over 7.00. The compound further registered a CC50 at 3 days in data set [2] (Table 2, 3 days incubation) of under 1000 nM.
Turning to `COc1ccc(CNc2nc(NCC(F)(F)F)c3nc(-c4ccc(F)cc4)ccc3n2)cc1S(N)(=O)=O` [Example 6], in data set [1], the pEC50 was 6.60 to 7.00. Moreover, the CC50 at 3 days in data set [2] (Table 1, 3 days incubation) is over 25000 nM.
On to `CCOc1ccc(-c2ccc3nc(N[C@H](C)Cn4cncn4)nc(NCC(F)(F)F)c3n2)cn1` [Example 232, N^2-((R)-1-(1H-1,2,4-triazol-1-yl)propan-2-yl)-6-(6-ethoxypyridin-3-yl)-N^4-(2,2,2-trifluoroethyl)pyrido[3,2-d] pyrimidine-2,4-diamine], for which, in data set [1], the pEC50 is over 7.00. The cytotoxic concentration (CC50) at 3 days in data set [2] (Table 2, 3 days incubation) lay within 1000 to 10000 nM.
In the same order, the values of `CS(=O)(=O)c1cccc(-c2ccc3nc(NCc4ccc(-n5cncn5)cc4)nc(OC4CCC4)c3n2)c1` [Example 202, N-(4-(1H-1,2,4-triazol-1-yl)benzyl)-4-cyclobutoxy-6-(3-(methylsulfonyl)phenyl)pyrido [3,2-d]pyrimidin-2-amine] are over 7.00 and over 10000 nM.
With `CC#Cc1ccc2nc(N[C@H](C)c3ccc(S(N)(=O)=O)cc3)nc(OC3CC3)c2n1` [Example 309, (R)-4-(1-(4-cyclopropoxy-6-(prop-1-ynyl)pyrido[3,2-d]pyrimidin-2-ylamino)ethyl) benzenesulfonamide], the pEC50 in data set [1] is over 7.00. In data set [2] (Table 2, 3 days incubation), this compound returned a CC50 at 3 days of over 10000 nM.

The record behind these values is US8536187B2 (Gilead Sciences, Inc., priority 2008, dated 2013).
